In US5684162A, “Leukotriene B4 antagonists” (G.D. Searle & Co., priority 1996, dated 1997):

Experiments:
Human neutrophils = test: Modified Boyden Chamber Chemotaxis (LTB4-induced, human neutrophils); format: cell-based; settings: Neutrophil; 3×10^-8 M LTB4, human neutrophils, 40-90 minute incubation at 37° C., pH 7.3
Description: Modified Boyden Chamber Chemotaxis
Human neutrophils were isolated from citrated peripheral blood using standard techniques of dextran sedimentation, followed by centrifugation on Histopaque® sterile solution (Sigma) or Ficoll-paque® (Pharmacia) and hypotonic lysis of erythrocytes. A final cell suspension of 3.4×10^6 neutrophils/ml of HEPES-buffered Hanks' balanced salt solution (HBSS, pH 7.3) was added to the upper well (0.8 ml) of a modified Boyden chamber (blind well). The lower well (0.2 ml), separated by a polycarbonate membrane (Nucleopore Corp.), contained HBSS or 3×10^-8 M LTB4 in the presence or absence of test compound. Following a 40-90 minute incubation at 37° C. in 5% CO2 -95% air, cells from the lower well were lysed and nuclei counted in a Model S-Plus-IV Coulter Counter. The number of neutrophils migrating into the lower chamber in the absence of chemoattractant was subtracted from the number of cells migrating in the presence of a chemoattractant. Inhibition of chemotaxis by test compounds was expressed as percent inhibition relative to uninhibited control.

LTB4 Receptor = molecular target: T1, LTB4 Receptor (Homo sapiens, UniProt Q15722); test: LTB4 Receptor Binding Assay ([3H]LTB4, human neutrophils); settings: 0.6×10^-9 M (3H) LTB4, human neutrophils, 0° C., 45 minutes, pH 7.4
T1 construct: Neutrophils were purified from venous blood of normal human donors; endogenous in cells; host or cells: human peripheral blood neutrophils (>95% pure, normal donors)
Description: Preparation of Human Neutrophils
Neutrophils were purified from venous blood of normal human donors using standard techniques of dextran sedimentation, centrifugation on Ficoll-paque® (Pharmacia) or Histopaque® sterile solution (Sigma) and hypotonic lysis of erythrocytes (Boyum, A., Isolation of Leukocytes From Human Blood: Further Observations. Scand. J. Lab. Clin. Invest., 21 (Suppl. 97): 31, 1968).
LTB4 Receptor Binding Assay
Neutrophils (4-6×10^6) in 1 ml Hanks' balanced salt solution (HBSS) containing 10 mM HEPES buffer , pH 7.4 and […] nordihydroguaiaretic acid were incubated with 0.6×10^-9 M (^3 H) LTB4 in the presence or absence of test compounds. The incubation was carried out at 0° C. for 45 minutes and terminated by adding 5 ml of ice-cold HBSS followed by rapid filtration of the incubation mixture under vacuum through GF/C glass fiber filters. The filters were further washed with 10 ml HBSS and radioactivity was determined. Specific binding was defined as the difference between total binding and nonspecific binding which was not displaced by 10^-7 M unlabeled LTB4. All data refer to specific binding.

T1 sequence (Q15722 whole entry): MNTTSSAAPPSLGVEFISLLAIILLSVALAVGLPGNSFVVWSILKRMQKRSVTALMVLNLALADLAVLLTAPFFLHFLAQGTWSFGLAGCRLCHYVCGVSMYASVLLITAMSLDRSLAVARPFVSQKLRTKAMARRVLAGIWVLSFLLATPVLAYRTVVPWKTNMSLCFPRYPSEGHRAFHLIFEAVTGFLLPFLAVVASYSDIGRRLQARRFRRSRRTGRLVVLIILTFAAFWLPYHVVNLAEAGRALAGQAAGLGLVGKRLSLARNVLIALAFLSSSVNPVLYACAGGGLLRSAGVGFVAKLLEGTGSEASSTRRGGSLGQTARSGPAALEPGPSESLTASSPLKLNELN

IC50 (Human neutrophils) [nM] | IC50 (LTB4 Receptor) [nM] | Structure (SMILES)
25 | 2.1 | CCCc1c(OCCCOc2ccc(C(=O)NC)c(OC)c2CC2CC2)ccc2c1OC(CCC(=O)NS(=O)(=O)c1ccccc1)CC2 (stereo not drawn) [Example 5]
30 | 3.7 | CCCc1c(OCCCOc2ccc(C(=O)NC)c(OC)c2CC2CC2)ccc2c1OC(CCC(=O)NS(=O)(=O)c1ccc(C)cc1)CC2 (stereo not drawn) [Example 6]
23 | 3 | CCCc1c(OCCCOc2ccc(C(=O)NC)c(OC)c2CC2CC2)ccc2c1OC(CCC(=O)NS(=O)(=O)c1ccccc1C)CC2 (stereo not drawn) [Example 7]
